Source: patent publication US20240336602A1 (Katholieke Universiteit Leuven, priority 2020, published 2024)
Each block holds one compound with its values, some of them ahead of it.

Target: T1, mouse TRPM3a2 (mTRPM3) ion channel (Mus musculus, UniProt J9SQF3)
T1 construct: expressed in transfected cells; host or cells: flip-in HEK293
Assay: TRPM3 ion channel driven Ca2+ uptake, Fluo-4 AM assay (PS-stimulated, overexpressing flip-in HEK293 cells)
Type: cell-based
Protocol: In order to monitor the inhibition of the mouse TRPM3a2 (mTRPM3) ion channel by the compounds of the invention, a cellular system making use of an mTRPM3alpha2 or hTRPM3 overexpressing cell line (flip-in HEK293) was used. The TRPM3 channel was stimulated/opened with Pregnenolone sulfate (PS) (50 μM) which results in Ca^2+ influx.
For mTRPM3, the intracellular Ca^2+ was measured with a Calcium responsive dye, Fluor-4 AM ester (Invitrogen). Cells were cultured until a confluence of 80-90%, washed with Versene (Invitrogen) and detached from the surface by a short incubation with 0.05% Trypsin (Invitrogen). The trypsination process was stopped by the addition of complete cell culture medium (DMEM, glutamax, 10% FCS, NEAA, Pen-Strep). Cells were collected and resuspended in Krebs buffer without Calcium at RT.
Prior the cell seeding (±2000 cells/well into a black, 384 well plate (Greiner)) the diluted compound was added in the assay plate, together with the PS dissolved in Krebs buffer containing Calcium. […] Directly after cell addition the plates were read on an Envision fluorescence reader (Perkin Elmer) by an Excitation of 485 nm and emission at 535 nm.
Channel inhibition was calculated compared to a non-PS stimulated control versus a condition stimulated with PS (50 μM) with vehicle. The ability of the compounds of the invention to inhibit this activity was determined as: Percentage inhibition=[1-((RFU determined for sample with test compound present—RFU determined for sample with positive control inhibitor) divided by (RFU determined in the presence of vehicle—RFU determined for sample with positive control inhibitor))]*100.

[1] = PS (50 μM) stimulated, cpds. 600-666
[2] = PS (50 μM) stimulated, cpd 001-199
[3] = PS (50 μM) stimulated, cpds. 400-499
[4] = PS (50 μM) stimulated, cpds. 667-751
[5] = PS (50 μM) stimulated, cpds. 500-599
[6] = PS (50 μM) stimulated Ca2+ influx, HEK293, cpds 300-399

T1 sequence (J9SQF3 1-1709 isoform J9SQF3-12): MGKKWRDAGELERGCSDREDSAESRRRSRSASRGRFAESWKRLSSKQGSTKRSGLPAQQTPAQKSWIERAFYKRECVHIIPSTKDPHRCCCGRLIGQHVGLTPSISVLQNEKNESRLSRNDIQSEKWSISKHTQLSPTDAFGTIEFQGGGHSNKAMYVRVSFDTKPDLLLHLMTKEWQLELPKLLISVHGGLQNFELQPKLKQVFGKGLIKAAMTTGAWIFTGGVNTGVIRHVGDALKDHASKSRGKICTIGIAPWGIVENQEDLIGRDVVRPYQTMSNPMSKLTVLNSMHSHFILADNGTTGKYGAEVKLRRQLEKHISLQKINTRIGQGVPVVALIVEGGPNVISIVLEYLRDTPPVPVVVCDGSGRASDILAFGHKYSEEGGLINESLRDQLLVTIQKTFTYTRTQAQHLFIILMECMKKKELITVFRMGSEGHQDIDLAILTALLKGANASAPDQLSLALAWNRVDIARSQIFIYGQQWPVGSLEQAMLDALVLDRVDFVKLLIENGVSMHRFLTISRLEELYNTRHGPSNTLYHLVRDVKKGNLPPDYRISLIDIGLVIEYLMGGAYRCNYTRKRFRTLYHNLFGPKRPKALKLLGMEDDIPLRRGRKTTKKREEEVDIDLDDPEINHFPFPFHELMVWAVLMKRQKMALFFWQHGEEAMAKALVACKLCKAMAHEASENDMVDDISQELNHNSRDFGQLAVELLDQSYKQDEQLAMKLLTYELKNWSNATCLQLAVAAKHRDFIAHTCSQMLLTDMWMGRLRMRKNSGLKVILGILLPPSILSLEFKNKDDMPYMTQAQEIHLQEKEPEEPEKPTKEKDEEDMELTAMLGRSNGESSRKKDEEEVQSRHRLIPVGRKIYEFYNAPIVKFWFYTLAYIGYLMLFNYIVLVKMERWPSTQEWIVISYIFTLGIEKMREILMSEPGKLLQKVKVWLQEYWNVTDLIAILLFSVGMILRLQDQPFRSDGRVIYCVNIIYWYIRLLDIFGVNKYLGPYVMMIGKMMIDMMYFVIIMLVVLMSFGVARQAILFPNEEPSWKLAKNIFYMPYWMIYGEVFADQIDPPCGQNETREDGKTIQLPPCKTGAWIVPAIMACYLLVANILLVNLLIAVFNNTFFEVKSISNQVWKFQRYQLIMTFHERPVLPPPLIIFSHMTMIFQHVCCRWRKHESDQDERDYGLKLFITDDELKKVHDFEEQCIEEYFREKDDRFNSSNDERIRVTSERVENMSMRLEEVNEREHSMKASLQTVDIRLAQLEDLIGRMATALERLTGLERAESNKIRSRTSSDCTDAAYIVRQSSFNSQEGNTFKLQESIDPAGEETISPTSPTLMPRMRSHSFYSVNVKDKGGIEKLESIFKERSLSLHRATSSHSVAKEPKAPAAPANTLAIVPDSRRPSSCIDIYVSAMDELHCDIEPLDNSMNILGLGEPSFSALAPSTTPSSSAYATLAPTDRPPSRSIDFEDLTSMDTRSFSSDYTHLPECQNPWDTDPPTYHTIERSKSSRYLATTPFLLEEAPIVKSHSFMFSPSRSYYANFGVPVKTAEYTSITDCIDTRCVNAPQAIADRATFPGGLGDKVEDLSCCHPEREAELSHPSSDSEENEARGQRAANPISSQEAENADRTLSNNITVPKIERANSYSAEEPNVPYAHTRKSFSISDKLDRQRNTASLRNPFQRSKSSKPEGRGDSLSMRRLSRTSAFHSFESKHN

Compound: Cc1oc2c(C)cc(OCc3cccnc3C(F)(F)F)cc2c1C(=O)NC1CCNCC1(F)F (single isomer, unassigned) [183 - En 2, N-(3,3-difluoropiperidin-4-yl)-2,7-dimethyl-5-((2-(trifluoromethyl)pyridin-3-yl)methoxy)benzofuran-3-carboxamide]
IC50 [2]: ≥ 20 µM

Compound: Cc1ncsc1COc1ccc2oc(C)c(C(=O)NC3(C)CCN(CCO)C3=O)c2c1 (single isomer, unassigned) [410 - En 2]
IC50 [3]: 1 to 20 µM

Compound: Cc1oc2ccc(OCc3cccc(=O)n3C)cc2c1C(=O)NC1(CO)CCOCC1 [cpd 610, N-(4-(hydroxymethyl)tetrahydro-2H-pyran-4-yl)-2-methyl-5-((1-methyl-6-oxo-1,6-dihydropyridin-2-yl)methoxy)benzofuran-3-carboxamide]
IC50 [1]: 1 to 20 µM

Compound: Cc1oc2ccc(OCc3cccnn3)cc2c1C(=O)NC1(CO)CCNC1=O (single isomer, unassigned) [734 - En 2]
IC50 [4]: 1 to 20 µM

Compound: Cc1oc2cc(Cl)c(OCc3cccnc3C(F)(F)F)cc2c1C(=O)NC1CCNCC1(F)F (single isomer, unassigned) [165 - En 2]
IC50 [2]: 1 to 20 µM

Compound: Cc1ncsc1COc1ccc2oc(C)c(C(=O)NC3CN(C)CC3(F)F)c2c1 (single isomer, unassigned) [123 - En 1]
IC50 [2]: ≤ 1 µM

Compound: Cc1oc2ccc(OCc3c(F)cnn3C)cc2c1C(=O)NC1(C(N)=O)CCOC1 (single isomer, unassigned) [598 - En 1]
IC50 [5]: ≤ 1 µM

Compound: Cc1oc2ccc(OCc3ncccc3C(F)F)cc2c1C(=O)NC1(CO)CCOCC1 [cpd 351, 5-((3-(difluoromethyl)pyridin-2-yl)methoxy)-N-(4-(hydroxymethyl)tetmhydro-2H-pyran-4-yl)-2-methylbenzofuran-3-carboxamide]
IC50 [6]: 1 to 20 µM

Compound: Cc1coc(COc2ccc3oc(C)c(C(=O)NC4(CO)CCOCC4)c3c2)n1 [cpd 616, N-(4-(hydroxymethyl)tetrahydro-2H-pyran-4-yl)-2-methyl-5-((4-methyloxazol-2-yl)methoxy)benzofuran-3-carboxamide]
IC50 [1]: 1 to 20 µM

Compound: Cc1ncsc1COc1ccc2oc(C(F)F)c(C(=O)NC3(CO)CC3)c2c1 [cpd 308, 2-(difluoromethyl)-N-(1-(hydroxymethyl)cyclopropyl)-5-((4-methylthiazol-5-yl)methoxy)benzofuran-3-carboxamide]
IC50 [6]: 1 to 20 µM

Compound: Cc1oc2ccc(OCc3nccs3)cc2c1C(=O)NC1CCNCC1(F)F (stereo not shown) [cpd 050, N-(3,3-difluoropiperidin-4-yl)-2-methyl-5-(thiazol-2-ylmethoxy)benzofuran-3-carboxamide]
IC50 [2]: ≤ 1 µM

Compound: Cc1ncsc1COc1ccc2oc(C)c(C(=O)NC(CN(C)C3CC3)C(N)=O)c2c1 (single isomer, unassigned) [446 - En 2]
IC50 [3]: 1 to 20 µM

Compound: Cc1ncc(COc2ccc3oc(C)c(C(=O)NC(CN(C)C4CC4)C(N)=O)c3c2)s1 (single isomer, unassigned) [445 - En 2]
IC50 [3]: 1 to 20 µM

Compound: Cc1cnc(COc2ccc3oc(C)c(C(=O)NC4(CO)CCOCC4)c3c2)cn1 [cpd 619, N-(4-(hydroxymethyl)tetrahydro-2H-pyran-4-yl)-2-methyl-5-((5-methylpyrazin-2-yl)methoxy)benzofuran-3-carboxamide]
IC50 [1]: 1 to 20 µM

Compound: COc1ncccc1COc1ccc2oc(C)c(C(=O)NC3(CO)CCNC3=O)c2c1 (single isomer, unassigned) [522 - En 1]
IC50 [5]: ≤ 1 µM

Compound: COc1ncccc1COc1ccc2oc(C(F)F)c(C(=O)NC3(CO)CCOCC3)c2c1 [cpd 312, 2-(difluoromethyl)-N-(4-(hydroxymethyl)tetrahydro-2H-pyran-4-yl)-5-((2-methoxypyridin-3-yl)methoxy)benzofuran-3-carboxamide]
IC50 [6]: 1 to 20 µM

Compound: Cc1ncsc1COc1ccc2oc(C)c(C(=O)NC3CN(CCO)CC3(F)F)c2c1 (single isomer, unassigned) [151 - En 1]
IC50 [2]: ≤ 1 µM

Compound: Cc1ncsc1COc1ccc2oc(C)c(C(=O)NC3CN(CC(F)(F)F)CC3(F)F)c2c1 (single isomer, unassigned) [155 - En 2, N-(4,4-difluoro-1-(2,2,2-trifluoroethyl)pyrrolidin-3-yl)-2-methyl-5-((4-methylthiazol-5-yl)me-thoxy)benzofuran-3-carboxamide]
IC50 [2]: ≤ 1 µM

Compound: Cc1oc2ccc(OCc3nccs3)cc2c1C(=O)NC1CCN(C(=O)OC(C)(C)C)CC1(F)F (stereo not shown) [cpd 087, tert-butyl 3,3-difluoro-4-(2-methyl-5-(thiazol-2-ylmethoxy)benzofuran-3-carboxamido)piperidine-1-carboxylate]
IC50 [2]: 1 to 20 µM

Compound: Cc1ncsc1COc1ccc2oc(C)c(C(=O)NC(CN(C)C3CC3)C(N)=O)c2c1 (single isomer, unassigned) [446 - En 1]
IC50 [3]: ≤ 1 µM

Compound: Cc1ncsc1COc1cc(C#N)c2oc(C)c(C(=O)NC3(CO)CCOCC3)c2c1 [compound 188, 7-cyano-N-(4-(hydroxymethyl)tetrahydro-2H-pyran-4-yl)-2-methyl-5-((4-methylthiazol-5-yl)methoxy)benzofuran-3-carboxamide]
IC50 [2]: 1 to 20 µM

Compound: Cc1ncccc1COc1ccc2oc(C)c(C(=O)NC3(CO)CCNC3=O)c2c1 (single isomer, unassigned) [516 - En 1]
IC50 [5]: ≤ 1 µM

The next lines start with the values.

IC50 [1]: 1 to 20 µM
Compound: Cc1oc2ccc(OCc3cncn3C)cc2c1C(=O)NC1(CO)CCOCC1 [cpd 607, N-(4-(hydroxymethyl)tetrahydro-2H-pyran-4-yl)-2-methyl-5-((1-methyl-1H-imidazol-5-yl)methoxy)benzofuran-3-carboxamide]

IC50 [2]: 1 to 20 µM
Compound: Cc1ccncc1COc1ccc2oc(C)c(C(=O)NC3CCOC3)c2c1 (stereo not shown) [cpd 034, 2-methyl-5-((4-methylpyridin-3-yl)methoxy)-N-(tetrahydrofuran-3-yl)benzofuran-3-carboxamide]

IC50 [1]: 1 to 20 µM
Compound: Cc1oc2ccc(OCc3nccn3C)cc2c1C(=O)NC1COCC1O (stereo not shown) [653 - En 1]

IC50 [2]: ≤ 1 µM
Compound: Cc1ncsc1COc1ccc2oc(C)c(C(=O)NC3CN(C)CCC3(F)F)c2c1 (single isomer, unassigned) [118 - En 1]

IC50 [2]: 1 to 20 µM
Compound: Cc1oc2ccc(OCc3cncs3)cc2c1C(=O)O [cpd 014, 2-methyl-5-(thiazol-5-ylmethoxy)benzofuran-3-carboxylic acid]

IC50 [1]: ≤ 1 µM
Compound: CNC(=O)C(CO)NC(=O)c1c(C)oc2ccc(OCc3scnc3C)cc12 (single isomer, unassigned) [600 - En 1]

IC50 [4]: ≤ 1 µM
Compound: Cc1oc2ccc(OCc3ccnn3C)cc2c1C(=O)NC1(CO)CCCNC1=O (single isomer, unassigned) [732 - En 1]

IC50 [2]: 1 to 20 µM
Compound: Cc1oc2ccc(OCc3cncnc3)cc2c1C(=O)NC1CCNC1=O (stereo not shown) [cpd 032, 2-methyl-N-(2-oxopyrrolidin-3-yl)-5-(pyrimidin-5-ylmethoxy)benzofuran-3-carboxamide]

IC50 [5]: ≤ 1 µM
Compound: Cc1ncsc1COc1ccc2oc(C)c(C(=O)NCC(N)=O)c2c1 [cpd 503, N-(2-amino-2-oxoethyl)-2-methyl-5-((4-methylthiazol-5-yl)methoxy)benzofuran-3-carboxamide]

IC50 [3]: ≤ 1 µM
Compound: Cc1oc2ccc(OCc3ccnn3C)cc2c1C(=O)NC(C)C(N)=O (single isomer, unassigned) [433 - En 1]

IC50 [3]: 1 to 20 µM
Compound: Cc1oc2ccc(OCc3ccnn3C)cc2c1C(=O)NC1CCN(CCO)C1=O (single isomer, unassigned) [404 - En 1]

IC50 [3]: ≤ 1 µM
Compound: Cc1ncsc1COc1ccc2oc(C)c(C(=O)NC(CO)C(=O)N(C)C)c2c1 (single isomer, unassigned) [411 - En 1]
